# From patent publication US10316035B2, “Triazolopyridine inhibitors of myeloperoxidase” (BRISTOL-MYERS SQUIBB COMPANY, priority 2015, dated 2019)
# Target: T1, myeloperoxidase (MPO) (Homo sapiens, UniProt P05164)
# T1 sequence (P05164 49-745): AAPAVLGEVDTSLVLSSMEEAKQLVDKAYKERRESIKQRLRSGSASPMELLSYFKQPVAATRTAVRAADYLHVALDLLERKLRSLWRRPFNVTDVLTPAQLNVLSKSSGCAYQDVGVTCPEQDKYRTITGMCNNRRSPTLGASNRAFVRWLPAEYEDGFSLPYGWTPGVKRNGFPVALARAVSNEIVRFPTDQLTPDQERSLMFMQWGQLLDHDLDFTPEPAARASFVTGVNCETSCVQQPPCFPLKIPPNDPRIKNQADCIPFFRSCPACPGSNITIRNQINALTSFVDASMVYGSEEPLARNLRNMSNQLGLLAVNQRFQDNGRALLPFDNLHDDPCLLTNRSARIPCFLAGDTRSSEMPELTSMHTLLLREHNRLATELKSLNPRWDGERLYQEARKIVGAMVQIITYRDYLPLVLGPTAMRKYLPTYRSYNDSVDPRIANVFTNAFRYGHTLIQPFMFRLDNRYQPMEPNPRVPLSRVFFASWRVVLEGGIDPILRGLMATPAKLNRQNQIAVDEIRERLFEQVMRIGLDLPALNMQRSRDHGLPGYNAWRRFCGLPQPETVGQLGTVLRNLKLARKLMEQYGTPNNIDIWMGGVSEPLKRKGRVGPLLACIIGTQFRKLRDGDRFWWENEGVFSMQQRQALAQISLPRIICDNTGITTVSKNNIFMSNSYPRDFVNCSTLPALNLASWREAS
# Assay: MPO peroxidation assay (Amplex Red assay)
# Type: biochemical
# Conditions: not given
# Protocol: MPO Peroxidation Assay (Amplex Red Assay)
# MPO peroxidation activity was measured in 100 mM KPi (pH 7.4) by utilizing the non-fluorescent reagent Amplex Red (Invitrogen catalog # A12222) which can be oxidized to the highly fluorescent resorufin. Amplex Red is oxidized by the peroxidase action of MPO to resorufin. Reactions were carried out in 50 μL total volume by adding a 25 μL mixture of 200 pM myeloperoxidase and 40 nM H2O2(Sigma #349887) to 100 nL inhibitor in 100% DMSO in a 384 well Perkin Elmer Optiplate. Enzyme and compound were preincubated for ten minutes at room temperature.
# After the ten minute preincubation, 25 μL of an Amplex Red mixture containing 200 μM Amplex Red and 10 mM H2O2 was added to the plate. Kinetic determinations were carried out immediately on a Perkin Elmer Envision (15 minute kinetic read, Ex: 535 nm, Em: 590 nm).
# IC50 values were calculated by determining the slope of the linear portion of the kinetic trace ([…]), and using that calculated slope to determine % inhibition occurring at each concentration of inhibitor using the following equation:
# [formula] where A=minimal Y value (activity level of inhibited sample), B=maximal Y value (activity level of uninhibited sample), C=Log IC50, D=Hill Slope, x=concentration of inhibitor. MPO Chlorination Assay (APF Assay)
row,SMILES,IC50 [nM]
1,"Cn1ccc(-c2cccc(COc3cc(N)nc4[nH]nnc34)c2)n1 [Example 5, 7-(3-(1-Methyl-1H-pyrazol-3-yl)benzyloxy)-3H-[1,2,3]triazolo[4,5-b]pyridin-5-amine]",1 to 100
2,"Nc1cc(OCc2cccc(Cl)c2)c2nn[nH]c2n1 [Example 10, 7-(3-Chlorobenzyloxy)-3H-[1,2,3]triazolo[4,5-b]pyridin-5-amine]",1 to 100
3,"Nc1cc(OCc2ccc(Cl)cc2)c2nn[nH]c2n1 [Example 11, 7-(4-Chlorobenzyloxy)-3H-[1,2,3]triazolo[4,5-b]pyridin-5-amine]",1 to 100
4,"Nc1cc(OCc2ccccc2Cl)c2nn[nH]c2n1 [Example 12, 7-(2-Chlorobenzyloxy)-3H-[1,2,3]triazolo[4,5-b]pyridin-5-amine]",1 to 100

# Same assay, conditions: MPO peroxidation, potency range class; read-out: Amplex Red IC50
row,SMILES,IC50 [nM]
1,"CCC(F)(F)C(Oc1cc(N)nc2[nH]nnc12)c1ccccc1 (racemic) [Example 135, 7-(2,2-Difluoro-1-phenylbutoxy)-3H-[1,2,3]triazolo[4,5-b]pyridin-5-amine]",101 to 999
2,"CCC(F)(F)C(Oc1cc(N)nc2[nH]nnc12)c1ccccc1OC (racemic) [Example 136, 7-(2,2-Difluoro-1-(2-methoxyphenyl)butoxy)-3H-[1,2,3]triazolo[4,5-b]pyridin-5-amine]",101 to 999
3,"Nc1cc(OC(c2ccccc2)C(F)F)c2nn[nH]c2n1 (racemic) [Example 138, 7-(2,2-Difluoro-1-phenylethoxy)-3H-[1,2,3]triazolo[4,5-b]pyridin-5-amine]",101 to 999
4,"CCC(F)(F)C(Oc1cc(N)nc2[nH]nnc12)c1ccccc1 (single isomer, unassigned) [Example 137, 7-(2,2-Difluoro-1-phenylbutoxy)-3H-[1,2,3]triazolo[4,5-b]pyridin-5-amine]",1 to 100
5,"Nc1cc(OCc2ccc(OC(F)(F)F)cc2)c2nn[nH]c2n1 [Example 1, 7-(4-(Trifluoromethoxy)benzyloxy)-3H-[1,2,3]triazolo[4,5-b]pyridin-5-amine]",1 to 100
6,"Nc1cc(OCc2cccc(-n3cncn3)c2)c2nn[nH]c2n1 [Example 3, 7-(3-(1H-1,2,4-Triazol-1-yl)benzyloxy)-3H-[1,2,3]triazolo[4,5-b]pyridin-5-amine]",1 to 100
7,"Nc1cc(OCc2cccc(S(=O)(=O)N3CCOCC3)c2)c2nn[nH]c2n1 [Example 4, 7-(3-(Morpholinosulfonyl)benzyloxy)-3H-[1,2,3]triazolo[4,5-b]pyridin-5-amine]",101 to 999
8,"Cc1nccn1-c1cccc(COc2cc(N)nc3[nH]nnc23)c1 [Example 7, 7-(3-(2-Methyl-1H-imidazol-1-yl)benzyloxy)-3H-[1,2,3]triazolo[4,5-b]pyridin-5-amine]",101 to 999
9,"Nc1cc(OCc2cccc(OC(F)(F)F)c2)c2nn[nH]c2n1 [Example 13, 7-(3-(Trifluoromethoxy)benzyloxy)-3H-[1,2,3]triazolo[4,5-b]pyridin-5-amine]",1 to 100
10,"Nc1cc(OCc2cccc(Oc3ccccc3)c2)c2nn[nH]c2n1 [Example 16, 7-(3-Phenoxybenzyloxy)-3H-[1,2,3]triazolo[4,5-b]pyridin-5-amine]",101 to 999
11,"Nc1cc(OCc2ccc(OC(F)F)cc2)c2nn[nH]c2n1 [Example 17, 7-(4-(Difluoromethoxy)benzyloxy)-3H-[1,2,3]triazolo[4,5-b]pyridin-5-amine]",101 to 999
12,"Nc1cc(OCc2ccccc2OCc2ccccc2)c2nn[nH]c2n1 [Example 20, 7-(2-(Benzyloxy)benzyloxy)-3H-[1,2,3]triazolo[4,5-b]pyridin-5-amine]",1 to 100
13,"Nc1cc(OCc2ccccc2OC(F)(F)F)c2nn[nH]c2n1 [Example 21, 7-(2-(Trifluoromethoxy)benzyloxy)-3H-[1,2,3]triazolo[4,5-b]pyridin-5-amine]",1 to 100
14,"COC(=O)c1cccc(COc2cc(N)nc3[nH]nnc23)c1 [Example 22, Methyl 3-((5-amino-3H-[1,2,3]triazolo[4,5-b]pyridin-7-yloxy)methyl)benzoate]",1 to 100
15,"COC(=O)c1cccc(COc2cc(N)nc3[nH]nnc23)c1Cl [Example 24, Methyl 3-((5-amino-3H-[1,2,3]triazolo[4,5-b]pyridin-7-yloxy)methyl)-2-chlorobenzoate]",1 to 100
16,"Nc1cc(OCc2cccc(C(=O)N3CCOCC3)c2)c2nn[nH]c2n1 [Example 25, (3-((5-Amino-3H-[1,2,3]triazolo[4,5-b]pyridin-7-yloxy)methyl)phenyl)(morpholino)methanone]",101 to 999

row,SMILES,IC50 [nM]
1,COc1c(COc2cc(N)nc3[nH]nnc23)cccc1C(F)(F)F [Example 26],1 to 100
2,"Nc1cc(OCc2cc(OC(F)(F)F)ccc2F)c2nn[nH]c2n1 [Example 27, 7-(2-Fluoro-5-(trifluoromethoxy)benzyloxy)-3H-[1,2,3]triazolo[4,5-b]pyridin-5-amine]",1 to 100
3,"Nc1cc(OCc2cc(C(F)(F)F)ccc2Cl)c2nn[nH]c2n1 [Example 28, 7-(2-Chloro-5-(trifluoromethyl)benzyloxy)-3H-[1,2,3]triazolo[4,5-b]pyridin-5-amine]",1 to 100
4,"Nc1cc(OCc2cc(C(F)(F)F)cc(C(F)(F)F)c2)c2nn[nH]c2n1 [Example 29, 7-(3,5-Bis(trifluoromethyl)benzyloxy)-3H-[1,2,3]triazolo[4,5-b]pyridin-5-amine]",1 to 100
5,"COc1ccc(C(F)(F)F)cc1COc1cc(N)nc2[nH]nnc12 [Example 30, 7-(2-Methoxy-5-(trifluoromethyl)benzyloxy)-3H-[1,2,3]triazolo[4,5-b]pyridin-5-amine]",1 to 100
6,"Nc1cc(OCc2c(Cl)cccc2OC(F)(F)F)c2nn[nH]c2n1 [Example 31, 7-(2-Chloro-6-(trifluoromethoxy)benzyloxy)-3H-[1,2,3]triazolo[4,5-b]pyridin-5-amine]",1 to 100
7,"Nc1cc(OCc2cc(OC(F)F)ccc2F)c2nn[nH]c2n1 [Example 32, 7-(5-(Difluoromethoxy)-2-fluorobenzyloxy)-3H-[1,2,3]triazolo[4,5-b]pyridin-5-amine]",1 to 100
8,"NC(=O)c1cccc(COc2cc(N)nc3[nH]nnc23)c1Cl [Example 33, 3-((5-Amino-3H-[1,2,3]triazolo[4,5-b]pyridin-7-yloxy)methyl)-2-chlorobenzamide]",101 to 999
9,"COc1ccc(OC(F)(F)F)cc1COc1cc(N)nc2[nH]nnc12 [Example 35, 7-(2-Methoxy-5-(trifluoromethoxy)benzyloxy)-3H-[1,2,3]triazolo[4,5-b]pyridin-5-amine]",1 to 100
10,"Nc1cc(OCc2ccccc2OCC(=O)NCC2CC2)c2nn[nH]c2n1 [Example 37, 2-(2-((5-Amino-3H-[1,2,3]triazolo[4,5-b]pyridin-7-yloxy)methyl)phenoxy)-N-(cyclopropylmethyl)acetamide]",101 to 999
11,"Nc1cc(OCc2ccccc2Oc2ccccc2)c2nn[nH]c2n1 [Example 38, 7-(2-Phenoxybenzyloxy)-3H-[1,2,3]triazolo[4,5-b]pyridin-5-amine]",1 to 100
12,"COC(=O)c1ccc(F)c(COc2cc(N)nc3[nH]nnc23)c1 [Example 41, Methyl 3-((5-amino-3H-[1,2,3]triazolo[4,5-b]pyridin-7-yloxy)methyl)-4-fluorobenzoate]",1 to 100
13,"CS(=O)(=O)c1cc(Cl)cc(COc2cc(N)nc3[nH]nnc23)c1 [Example 44, 7-(3-Chloro-5-(methylsulfonyl)benzyloxy)-3H-[1,2,3]triazolo[4,5-b]pyridin-5-amine]",101 to 999
14,"Nc1cc(OCc2cccc(-n3cnc(C(F)F)n3)c2)c2nn[nH]c2n1 [Example 45, 7-(3-(3-(Difluoromethyl)-1H-1,2,4-triazol-1-yl)benzyloxy)-3H-[1,2,3]triazolo[4,5-b]pyridin-5-amine]",1 to 100
15,"CN(C)S(=O)(=O)c1ccccc1-c1ccc(COc2cc(N)nc3[nH]nnc23)c(Cl)c1 [Example 46, 4′-((5-Amino-3H-[1,2,3]triazolo[4,5-b]pyridin-7-yloxy)methyl)-3′-chloro-N,N-dimethylbiphenyl-2-sulfonamide]",1 to 100
16,"Nc1cc(OCc2cc(C(=O)NCc3ccccc3)ccc2F)c2nn[nH]c2n1 [Example 47, 3-((5-Amino-3H-[1,2,3]triazolo[4,5-b]pyridin-7-yloxy)methyl)-N-benzyl-4-fluorobenzamide]",1 to 100
